Source: patent US5770617A, “Terbenzimidazoles useful as antifungal agents” (Rutgers, The State University of New Jersey, priority 1997, dated 1998)
“Also recorded” adds a separate entry of the source.

target: T1, Aspergillus topoisomerase I (Aspergillus nidulans, UniProt Q5BGS7); test: Topoisomerase I cleavage assay, Aspergillus enzyme; format: biochemical; conditions: DNA cleavage assay
T1 construct: about 105 kDa by phosphate transfer
T1 sequence (Q5BGS7 1-871): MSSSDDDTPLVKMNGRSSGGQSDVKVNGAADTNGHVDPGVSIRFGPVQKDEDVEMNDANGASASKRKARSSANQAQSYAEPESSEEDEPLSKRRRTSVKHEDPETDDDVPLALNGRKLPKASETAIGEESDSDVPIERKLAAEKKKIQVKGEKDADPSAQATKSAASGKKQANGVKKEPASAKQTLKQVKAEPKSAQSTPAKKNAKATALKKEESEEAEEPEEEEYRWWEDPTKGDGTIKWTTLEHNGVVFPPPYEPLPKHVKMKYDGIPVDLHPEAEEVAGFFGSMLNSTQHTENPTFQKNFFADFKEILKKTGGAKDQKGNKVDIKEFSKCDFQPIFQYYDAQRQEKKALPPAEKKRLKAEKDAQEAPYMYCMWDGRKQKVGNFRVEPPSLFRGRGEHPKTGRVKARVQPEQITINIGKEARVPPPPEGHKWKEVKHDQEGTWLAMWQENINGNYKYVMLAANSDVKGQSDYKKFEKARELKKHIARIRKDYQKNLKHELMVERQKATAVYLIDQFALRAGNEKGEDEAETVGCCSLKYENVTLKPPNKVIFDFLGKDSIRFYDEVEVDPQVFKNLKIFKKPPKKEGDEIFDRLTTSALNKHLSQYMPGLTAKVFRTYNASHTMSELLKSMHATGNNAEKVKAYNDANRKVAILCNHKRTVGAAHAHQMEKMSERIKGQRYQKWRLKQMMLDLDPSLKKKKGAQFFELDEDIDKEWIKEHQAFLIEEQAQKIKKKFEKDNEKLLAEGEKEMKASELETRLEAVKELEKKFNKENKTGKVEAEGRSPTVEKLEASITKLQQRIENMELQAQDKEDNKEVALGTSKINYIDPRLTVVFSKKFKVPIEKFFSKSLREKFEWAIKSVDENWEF
Protocol: Two liters of YG medium (0.5% yeast extract and 2% glucose) were inoculated with approximately 5×10^8 conidia/ml. After 16 hours of growth at 37° C., the mycelia were collected, washed with Buffer I (50 mM Tris-HCl, pH 7.7, 1 mM EDTA, 1 mM EGTA, 10% glycerol, 1 mM phenylmethylsulfonyl fluoride and 1 mM 2-mercaptoethanol), and quickly chilled in liquid nitrogen. The frozen mycelia (approximately 20 grams) were ground to powder and resuspended in 300 ml of Buffer I. The lysate was centrifuged at 10K rpm in a Sorval HB3 Rotor for 15 minutes to remove cell debris. The supernatant was made 6% in polyethylene glycol (v/v) and 1M NaCl. After one hour on ice with gentle stirring, the solution was centrifuged at 14K rpm in a Sorvall Rotor for 30 minutes to remove nucleic acids.
Subsequent steps in purification were the same as described previously for purification of recombinant human DNA topoisomerase I (B. Gatto et al., Cancer Res., 56, 2795 (1996)). Briefly, the supernatant was chromatographed directly onto a hydroxyapatite Bio-gel HTP (BioRad Laboratories, Richmond, Calif.) column. Fractions containing relaxation activity were pooled, diluted and then loaded onto a BioRex70 column (BioRad Laboratories, Richmond, Calif.). The column was developed with a linear gradient from 0.2 to 1M KCl. The peak fractions were pooled and dialyzed overnight at 4° C. against 30 mM potassium phosphate, 50% glycerol (v/v), 0.5 mM EDTA, and 1 mM DTT. Recombinant human topoisomerase I was purified from Escherichia coli BL21 (DE3) harboring PET1B as described previously (Gatto et al., Cancer Res., 56, 2795 (1996)).
DNA topoisomerase I cleavage assays were performed as described by Y.-H. Hsiang et al., J. Biol. Chem., 260, 14873 (1985). YEpG DNA was linearized with BamHI and then 3 '-end-labeled with Klenow polymerase and α[-^32 P]dCTP. Following phenol extraction and ethanol precipitation, the labeled DNA was resuspended in 10 mM Tris, pH 8.0, and 1 mM EDTA. The DNA cleavage assay was done in a reaction mixture (20 μl) containing 40 mM Tris-HCl, pH 7.8, 100 mM KCl, 10 mM MgCl2, 0.5 mM dithiothreitol, 0.5 mM EDTA, 30 μg/ml bovine serum albumin, 20 ng of labeled YEpG DNA, and […] of Aspergillus or human topoisomerase I diluted to various extents. Following incubation at 23° C. for 15 minutes, the reactions were terminated by the addition of SDS (final concentration 1%) and proteinase K (final concentration 200 μg/ml). Proteinase K treatment continued at 37° C. for another 1 hour. The terminated reactions were either alkali-denatured and then loaded (alkaline loading) or loaded directedly in neutral loading buffer (neutral loading) onto a 1% agarose gel in neutral TPE electrophoresis solution. Gel drying and autoradiography were performed as described by Hsiang et al., cited above.

Compound | inhibition (poisoning) of Aspergillus topoisomerase I, in words
N=C(N)c1ccc(N=NNc2ccc(C(=N)N)cc2)cc1 [Berenil, berenil] | inactive
COc1ccc(-c2nc3ccc(C(F)(F)F)cc3[nH]2)cc1 [QS/II/50] | None of the mono-benzimidazoles, including QS/II/50, QS/II/51, QS/II/59A, an QS/II/9, exhibited any inhibitory effect
CCOc1ccc(-c2nc3ccc(-c4nc5cc(CCCN(C)C)ccc5[nH]4)cc3[nH]2)cc1 [compound 2 wherein n is 3] | selective sensitivity
COc1cc2cc3c4cc(OC)c(OC)cc4cc[n+]3c(C)c2cc1OC [coralyne] | completely resistant; also recorded: did not inhibit Aspergillus topoisomerase I to any significant extent

target: T2, calf thymus topoisomerase I (Bos taurus, UniProt F1MN93); test: Topoisomerase I-mediated DNA cleavage assay (calf thymus enzyme); format: biochemical; conditions: concentration relative to Hoechst 33342 (arbitrarily 1) producing the same cleavage on plasmid DNA; calf thymus topoisomerase I
T2 construct: DNA topoisomerase I was purified from calf thymus gland as reported previously; from tissue; host or cells: calf thymus gland
T2 sequence (F1MN93 1-767): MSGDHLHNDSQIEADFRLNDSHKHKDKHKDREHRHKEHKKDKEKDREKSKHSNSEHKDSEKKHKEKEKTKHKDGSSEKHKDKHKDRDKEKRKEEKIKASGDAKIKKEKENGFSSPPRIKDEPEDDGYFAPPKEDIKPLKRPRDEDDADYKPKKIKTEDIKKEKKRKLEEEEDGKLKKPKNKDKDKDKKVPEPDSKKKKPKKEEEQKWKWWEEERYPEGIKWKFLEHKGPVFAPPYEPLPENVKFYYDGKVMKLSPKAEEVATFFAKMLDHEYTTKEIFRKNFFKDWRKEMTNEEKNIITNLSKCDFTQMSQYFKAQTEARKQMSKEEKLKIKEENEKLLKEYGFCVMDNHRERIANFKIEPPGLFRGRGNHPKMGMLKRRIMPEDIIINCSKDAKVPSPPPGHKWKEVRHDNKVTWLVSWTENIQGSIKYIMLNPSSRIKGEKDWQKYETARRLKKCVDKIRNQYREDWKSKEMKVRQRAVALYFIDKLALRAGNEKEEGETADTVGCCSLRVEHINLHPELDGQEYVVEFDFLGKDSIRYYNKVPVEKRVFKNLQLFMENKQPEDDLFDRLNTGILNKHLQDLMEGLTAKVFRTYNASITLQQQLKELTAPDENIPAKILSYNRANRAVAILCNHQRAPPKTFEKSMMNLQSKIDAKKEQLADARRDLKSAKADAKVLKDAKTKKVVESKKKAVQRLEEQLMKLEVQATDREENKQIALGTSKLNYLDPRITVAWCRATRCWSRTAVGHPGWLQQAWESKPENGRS
Source text: A. Topoisomerase I-Mediated DNA Cleavage Assays
DNA topoisomerase I was purified from calf thymus gland as reported previously by B. D. Halligan et al., J. Biol. Chem., 260, 2475 (1985).
Plasmid YEpG was also purified by the alkali lysis method followed by phenol deproteination and CsCl/ethidium isopycnic centrifugation as described by T. Maniatis et al., Molecular Cloning, A Laboratory Manual, Cold Spring Harbor Labs, N.Y. (1982) at pages 149-185. The end-labeling of the plasmid was accomplished as previously described by L. F. Liu et al., J. Biol. Chem., 258, 15365 (1983). The cleavage assays were performed as previously reported by A. Y. Chen et al., Cancer Res., 53, 1332 (1993). Human topoisomerase I was isolated as a recombinant fusion protein using a T7 expression system.

Topo I-mediated DNA cleavage (REC, Relative Effective Concentration) | Compound
3.3 | c1ccc(-c2ccc3[nH]c(-c4ccc5[nH]c(-c6ccc7[nH]cnc7c6)nc5c4)nc3c2)nc1 [Compound 14, 5-(2-Pyridyl)-2-[2'-(benzimidazol-5"-yl)benzimidazol-5'-yl]benzimidazole]
2 | c1cncc(-c2ccc3[nH]c(-c4ccc5[nH]c(-c6ccc7[nH]cnc7c6)nc5c4)nc3c2)c1 [Compound 15, 5-(3-Pyridyl)-2-[2'-(benzimidazol-5"-yl)benzimidazol-5'-yl]benzimidazole]
2 | c1cc(-c2ccc3[nH]c(-c4ccc5[nH]c(-c6ccc7[nH]cnc7c6)nc5c4)nc3c2)ccn1 [Compound 16, 5-(4-Pyridyl)-2-[2'-(benzimidazol-5"-yl)benzimidazol-5'-yl]benzimidazole]
1000 | N#Cc1ccc2[nH]c(-c3ccc4[nH]cnc4c3)nc2c1 [Compound 19, 5-Cyano-2-(benzimidazol-5'-yl)benzimidazole]
10 | Clc1ccc(-c2ccc3[nH]c(-c4ccc5[nH]c(-c6ccc7[nH]cnc7c6)nc5c4)nc3c2)cc1 [JSKIV-47, 5-(p-Chlorophenyl)-2-[2'-(benzimidazol-5"-yl)benzimidazol-5'-yl]-benzimidazole]
1 | Clc1ccc2[nH]c(-c3ccc4[nH]c(-c5ccc6[nH]cnc6c5)nc4c3)nc2c1 [JSKIV-68, 5-Chloro-2-[2'-(benzimidazol-5"-yl)benzimidazol-5'-yl]-benzimidazole]

Compound | Topo I-mediated DNA cleavage (REC, Relative Effective Concentration)
c1ccc2[nH]c(-c3ccc4[nH]c(-c5ccc6[nH]cnc6c5)nc4c3)nc2c1 [Compound 10, 2-[2'-(Benzimidazol-5"-yl)benzimidazol-5'-yl]benzimidazole] | 1.1

target: T3, human topoisomerase I (Homo sapiens, UniProt P11387); test: not given; conditions: cited from earlier work
T3 construct: made in house; host or cells: Escherichia coli BL21 (DE3) harboring PET1B
T3 sequence (P11387 1-765): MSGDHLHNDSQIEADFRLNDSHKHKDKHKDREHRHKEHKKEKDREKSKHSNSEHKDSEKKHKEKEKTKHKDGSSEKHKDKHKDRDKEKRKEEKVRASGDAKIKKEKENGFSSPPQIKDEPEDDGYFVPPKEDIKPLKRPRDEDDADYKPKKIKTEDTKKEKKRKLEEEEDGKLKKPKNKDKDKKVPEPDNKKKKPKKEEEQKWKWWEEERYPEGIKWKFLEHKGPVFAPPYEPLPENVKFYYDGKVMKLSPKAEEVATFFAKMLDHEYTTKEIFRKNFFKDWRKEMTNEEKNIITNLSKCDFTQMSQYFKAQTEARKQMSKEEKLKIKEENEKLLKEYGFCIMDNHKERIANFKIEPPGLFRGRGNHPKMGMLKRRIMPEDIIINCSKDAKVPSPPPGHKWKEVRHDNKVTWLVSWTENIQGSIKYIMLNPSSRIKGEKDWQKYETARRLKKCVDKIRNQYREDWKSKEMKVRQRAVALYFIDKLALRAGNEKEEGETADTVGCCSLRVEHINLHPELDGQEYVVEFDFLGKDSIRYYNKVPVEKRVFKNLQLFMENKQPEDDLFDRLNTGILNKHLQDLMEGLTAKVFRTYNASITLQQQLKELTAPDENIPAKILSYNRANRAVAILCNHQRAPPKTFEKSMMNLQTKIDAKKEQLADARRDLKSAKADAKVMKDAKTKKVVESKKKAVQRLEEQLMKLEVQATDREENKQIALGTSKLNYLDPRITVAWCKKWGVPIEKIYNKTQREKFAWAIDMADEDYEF

Compound | inhibition of human topoisomerase I, in words (known / previously disclosed)
N=C(N)c1ccc(N=NNc2ccc(C(=N)N)cc2)cc1 [Berenil, berenil] | inactive
COc1cc2cc3c4cc(OC)c(OC)cc4cc[n+]3c(C)c2cc1OC [coralyne] | highly potent inhibitors
